Results as given in US20130317064A1 (priority 2011, published 2013).

melting point: 102 to 105 °C
SMILES: Cc1cc(C(F)(F)F)nn1CC(=O)N1CCC(c2nc(NC(=O)C3=C(O)CCCC3=O)cs2)CC1 [I.a.001, 2-hydroxy-6-oxo-cyclohex-1-enecarboxylic acid (2-{1-[2-(5-methyl-3-trifluoromethyl-pyrazol-1-yl)-acetyl]-piperidin-4-yl}-thiazol-4-yl)-amide]
